# Assay results from patent US10167262B2, “Herbicidal substituted 3-arylpyrazoles” (FMC CORPORATION, priority 2014, dated 2019).
# Assays:
# Format in all cases: in vivo
# [1] = system: ducksalad (Heteranthera limosa); test: Test B flooded paddy test, plant response rating 0-100; conditions: Flood, 250 g ai/ha; scale 0 to 100 (0 no effect, 100 complete control); 13 to 15 days
# In short: (§1)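 Greenhouse pots flooded to 3 cm above soil at time of treatment received compound via the water, which stayed at that level.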
# rice (Oryza sativa) = test: as above; conditions: Flood, 250 g ai/ha; scale 0 to 100 (0 no effect, 100 complete control); 13 to 15 days
# In short: as §1
# [2] = system: sedge, umbrella (small-flower umbrella sedge, Cyperus difformis); test: as above; conditions: Flood, 250 g ai/ha; scale 0 to 100 (0 no effect, 100 complete control); 13 to 15 days
# In short: as §1
# [3] = system: barnyardgrass (Echinochloa crus-galli); test: Test C pre-/postemergence greenhouse test, plant response rating 0-100; conditions: Preemergence
# In short: (§2)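 Plants were scored visually against controls 13–15 days after treatment on a 0–100 scale, 100 meaning complete control. Test chemicals, formulated in surfactant-containing non-phytotoxic solvent, went preemergence onto seeds in loam–sand blend or postemergence onto 1- to 4-leaf plants (2–18 cm) grown in peat-based mix.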
# [4] = system: waterhemp (common waterhemp, Amaranthus rudis); test: as above; conditions: Preemergence
# In short: as §2
# [5] = system: bermudagrass (Cynodon dactylon); test: Test C postemergence greenhouse test, plant response rating 0-100; conditions: for Plant response rating, Bermudagrass: scale 0 to 100
# In short: (§3)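 Formulated compounds applied postemergence; plants 1- to 4-leaf stage. Evaluated visually vs. untreated controls after roughly two weeks (13–15 d) under greenhouse conditions; 100 denotes complete control.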
# [6] = system: canarygrass (Phalaris minor); test: as above; conditions: for Plant response rating, Canarygrass: scale 0 to 100
# In short: as §3
# [7] = system: cocklebur (common cocklebur, Xanthium strumarium); test: as above; conditions: for Plant response rating, Cocklebur: scale 0 to 100
# In short: as §3
# [8] = system: deadnettle (henbit deadnettle, Lamium amplexicaule); test: as above; conditions: for Plant response rating, Deadnettle: scale 0 to 100
# In short: as §3
# [9] = system: downy bromegrass (Bromus tectorum); test: as above; conditions: for Plant response rating, Bromegrass, Downy: scale 0 to 100
# In short: as §3
# [10] = system: goosegrass (Eleusine indica); test: as above; conditions: for Plant response rating, Goosegrass: scale 0 to 100
# In short: as §3
# [11] = system: green foxtail (Setaria viridis); test: as above; conditions: for Plant response rating, Foxtail, Green: scale 0 to 100
# In short: as §3
# [12] = system: surinam grass (Brachiaria decumbens); test: as above; conditions: for Plant response rating, Surinam Grass: scale 0 to 100
# In short: as §3
# [13] = system: windgrass (Apera spica-venti); test: as above; conditions: for Plant response rating, Windgrass: scale 0 to 100
# In short: as §3
# [14] = system: winter barley (Hordeum vulgare); test: as above; conditions: for Plant response rating, Barley: scale 0 to 100
# In short: as §3
# [15] = system: woolly cupgrass (Eriochloa villosa); test: as above; conditions: for Plant response rating, Cupgrass, Woolly: scale 0 to 100
# In short: as §3
# [16] = system: waterhemp_RES2, (ALS & HPPD resistant common waterhemp, Amaranthus rudis); test: Test E postemergence greenhouse test, plant response rating 0-100; conditions: scale 0 to 100
# In short: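 Visual ratings, 0 (no effect) to 100 (complete control), made versus controls 14–21 days after postemergence application in the greenhouse. Plants were at 1- to 4-leaf stage (2–18 cm) in peat moss/vermiculite potting medium.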
compound,measurement,setting,value
"C#CCn1cc(C(=O)c2ccccc2)c(-c2cc(Cl)cc(Cl)c2)n1 [Compound 39, [3-(3,5-dichlorophenyl)-1-(2-propyn-1-yl)-1H-pyrazol-4-yl]phenylmethanone]","Plant response rating, Ducksalad",[1],0
same,"Plant response rating, Rice",rice (Oryza sativa),0
same,"Plant response rating, Sedge, Umbrella",[2],0
same,"Plant response rating, Barnyardgrass",[3]; 62 g ai/ha,0
same,"Plant response rating, Barnyardgrass",[3]; 125 g ai/ha,0
same,"Plant response rating, Barnyardgrass",[3]; 250 g ai/ha,0
same,"Plant response rating, Barnyardgrass",[3]; 500 g ai/ha,0
same,"Plant response rating, Waterhemp",[4]; 62 g ai/ha,75
same,"Plant response rating, Waterhemp",[4]; 125 g ai/ha,100
same,"Plant response rating, Waterhemp",[4]; 250 g ai/ha,100
same,"Plant response rating, Waterhemp",[4]; 500 g ai/ha,100
same,"Plant response rating (0 to 100), Bermudagrass",[5]; 62 g ai/ha,0
same,"Plant response rating (0 to 100), Bermudagrass",[5]; 125 g ai/ha,0
same,"Plant response rating, Bermudagrass",[5]; 250 g ai/ha,0
same,"Plant response rating, Bermudagrass",[5]; 500 g ai/ha,0
same,"Plant response rating (0 to 100), Canarygrass",[6]; 62 g ai/ha,0
same,"Plant response rating (0 to 100), Canarygrass",[6]; 125 g ai/ha,0
same,"Plant response rating, Canarygrass",[6]; 250 g ai/ha,0
same,"Plant response rating, Canarygrass",[6]; 500 g ai/ha,0
same,"Plant response rating (0 to 100), Cocklebur",[7]; 62 g ai/ha,15
same,"Plant response rating (0 to 100), Cocklebur",[7]; 125 g ai/ha,55
same,"Plant response rating, Cocklebur",[7]; 250 g ai/ha,55
same,"Plant response rating, Cocklebur",[7]; 500 g ai/ha,55
same,"Plant response rating (0 to 100), Deadnettle",[8]; 62 g ai/ha,0
same,"Plant response rating (0 to 100), Deadnettle",[8]; 125 g ai/ha,0
same,"Plant response rating, Deadnettle",[8]; 250 g ai/ha,0
same,"Plant response rating, Deadnettle",[8]; 500 g ai/ha,0
same,"Plant response rating (0 to 100), Bromegrass, Downy",[9]; 62 g ai/ha,0
same,"Plant response rating (0 to 100), Bromegrass, Downy",[9]; 125 g ai/ha,0
same,"Plant response rating, Bromegrass, Downy",[9]; 250 g ai/ha,0
same,"Plant response rating, Bromegrass, Downy",[9]; 500 g ai/ha,5
same,"Plant response rating (0 to 100), Goosegrass",[10]; 62 g ai/ha,0
same,"Plant response rating (0 to 100), Goosegrass",[10]; 125 g ai/ha,0
same,"Plant response rating, Goosegrass",[10]; 250 g ai/ha,0
same,"Plant response rating, Goosegrass",[10]; 500 g ai/ha,0
same,"Plant response rating (0 to 100), Foxtail, Green",[11]; 62 g ai/ha,0
same,"Plant response rating (0 to 100), Foxtail, Green",[11]; 125 g ai/ha,0
same,"Plant response rating, Foxtail, Green",[11]; 250 g ai/ha,0
same,"Plant response rating, Foxtail, Green",[11]; 500 g ai/ha,5
same,"Plant response rating (0 to 100), Surinam Grass",[12]; 62 g ai/ha,0
same,"Plant response rating (0 to 100), Surinam Grass",[12]; 125 g ai/ha,0
same,"Plant response rating, Surinam Grass",[12]; 250 g ai/ha,0
same,"Plant response rating, Surinam Grass",[12]; 500 g ai/ha,0
same,"Plant response rating (0 to 100), Windgrass",[13]; 62 g ai/ha,0
same,"Plant response rating (0 to 100), Windgrass",[13]; 125 g ai/ha,0
same,"Plant response rating, Windgrass",[13]; 250 g ai/ha,0
same,"Plant response rating, Windgrass",[13]; 500 g ai/ha,0
same,"Plant response rating (0 to 100), Barley",[14]; 62 g ai/ha,0
same,"Plant response rating (0 to 100), Barley",[14]; 125 g ai/ha,0
same,"Plant response rating, Barley",[14]; 250 g ai/ha,0
same,"Plant response rating, Barley",[14]; 500 g ai/ha,0
same,"Plant response rating (0 to 100), Cupgrass, Woolly",[15]; 62 g ai/ha,0
same,"Plant response rating (0 to 100), Cupgrass, Woolly",[15]; 125 g ai/ha,0
same,"Plant response rating, Cupgrass, Woolly",[15]; 250 g ai/ha,0
same,"Plant response rating, Cupgrass, Woolly",[15]; 500 g ai/ha,0
same,"Plant response rating, Waterhemp_RES2",[16]; 31 g ai/ha,70
same,"Plant response rating, Waterhemp_RES2",[16]; 62 g ai/ha,75
same,"Plant response rating, Waterhemp_RES2",[16]; 125 g ai/ha,85
same,"Plant response rating, Waterhemp_RES2",[16]; 250 g ai/ha,90
same,"Plant response rating, Waterhemp_RES2",[16]; 500 g ai/ha,90
Clc1cc(Cl)cc(-c2n[nH]cc2C(=NNc2ccccc2Cl)c2ccccc2)c1 [Compound 66],"Plant response rating, Ducksalad",[1],0
same,"Plant response rating, Rice",rice (Oryza sativa),0
same,"Plant response rating, Sedge, Umbrella",[2],70
same,"Plant response rating (0 to 100), Bermudagrass",[5]; 62 g ai/ha,0
same,"Plant response rating (0 to 100), Bermudagrass",[5]; 125 g ai/ha,0
same,"Plant response rating, Bermudagrass",[5]; 250 g ai/ha,0
same,"Plant response rating, Bermudagrass",[5]; 500 g ai/ha,0
same,"Plant response rating (0 to 100), Canarygrass",[6]; 62 g ai/ha,0
same,"Plant response rating (0 to 100), Canarygrass",[6]; 125 g ai/ha,0
same,"Plant response rating, Canarygrass",[6]; 250 g ai/ha,0
same,"Plant response rating, Canarygrass",[6]; 500 g ai/ha,0
same,"Plant response rating (0 to 100), Cocklebur",[7]; 62 g ai/ha,40
same,"Plant response rating (0 to 100), Cocklebur",[7]; 125 g ai/ha,90
same,"Plant response rating, Cocklebur",[7]; 500 g ai/ha,90
same,"Plant response rating (0 to 100), Deadnettle",[8]; 62 g ai/ha,0
same,"Plant response rating (0 to 100), Deadnettle",[8]; 125 g ai/ha,0
same,"Plant response rating, Deadnettle",[8]; 250 g ai/ha,0
same,"Plant response rating, Deadnettle",[8]; 500 g ai/ha,5
same,"Plant response rating (0 to 100), Bromegrass, Downy",[9]; 62 g ai/ha,0
same,"Plant response rating (0 to 100), Bromegrass, Downy",[9]; 125 g ai/ha,0
same,"Plant response rating, Bromegrass, Downy",[9]; 250 g ai/ha,0
same,"Plant response rating, Bromegrass, Downy",[9]; 500 g ai/ha,0
same,"Plant response rating (0 to 100), Goosegrass",[10]; 62 g ai/ha,0
same,"Plant response rating (0 to 100), Goosegrass",[10]; 125 g ai/ha,0
same,"Plant response rating, Goosegrass",[10]; 250 g ai/ha,0
same,"Plant response rating, Goosegrass",[10]; 500 g ai/ha,0
same,"Plant response rating (0 to 100), Foxtail, Green",[11]; 62 g ai/ha,0
same,"Plant response rating (0 to 100), Foxtail, Green",[11]; 125 g ai/ha,0
same,"Plant response rating, Foxtail, Green",[11]; 250 g ai/ha,0
same,"Plant response rating, Foxtail, Green",[11]; 500 g ai/ha,0
same,"Plant response rating (0 to 100), Surinam Grass",[12]; 62 g ai/ha,0
same,"Plant response rating (0 to 100), Surinam Grass",[12]; 125 g ai/ha,0
same,"Plant response rating, Surinam Grass",[12]; 250 g ai/ha,0
same,"Plant response rating, Surinam Grass",[12]; 500 g ai/ha,0
same,"Plant response rating (0 to 100), Windgrass",[13]; 62 g ai/ha,0
same,"Plant response rating (0 to 100), Windgrass",[13]; 125 g ai/ha,0
same,"Plant response rating, Windgrass",[13]; 250 g ai/ha,0
same,"Plant response rating, Windgrass",[13]; 500 g ai/ha,0
same,"Plant response rating (0 to 100), Barley",[14]; 62 g ai/ha,0
same,"Plant response rating (0 to 100), Barley",[14]; 125 g ai/ha,0
same,"Plant response rating, Barley",[14]; 250 g ai/ha,0
same,"Plant response rating, Barley",[14]; 500 g ai/ha,0
same,"Plant response rating (0 to 100), Cupgrass, Woolly",[15]; 62 g ai/ha,0
same,"Plant response rating (0 to 100), Cupgrass, Woolly",[15]; 125 g ai/ha,0
same,"Plant response rating, Cupgrass, Woolly",[15]; 250 g ai/ha,0
same,"Plant response rating, Cupgrass, Woolly",[15]; 500 g ai/ha,0
